In patent US10351613B2, “Polypeptide for inhibition of tumor” (G-Bio Pharma Tech Co., Ltd., priority 2015, dated 2019):
In brackets after ≈: the same amount, converted by molar mass. Residues, ends and D or L forms follow the SMILES beside them.

Tests used:
SMMC7721 (Liver cancer) = test: MTT in vitro inhibition of SMMC7721; type: cell-based
Experimental: (§1) Inhibition of cell growth was detected by a MTT method, which is based on the principle that succinate dehydrogenase in the mitochondria of the live cells could reduce the exogenous MTT (3-(4,5-dimethyl-2-thiazolyl)-2,5-diphenyl-tetrazolium bromide) to a […] Formazan which is a blue-violet crystal, and precipitates in the cells, while the death cells could not reduce MTT. DMSO could dissolve Formazan in the cells. Absorbance value of the solution was determined at 490/570 nm by microplate reader, which could indirectly indicate the amount of the live cells. The amount of the crystal from MTT is proportional to the amount of the cells within a certain range of cell number. The supernate from the HUVEC or tumor cells in exponential phase was removed and the cells were washed by PBS once. 1 ml 0.25% trypsin (4° C.) was added for digestion at 37° C. for 2 min. Then the supernate was added for neutralization and the cells were dispersed to form a suspension and the suspension was centrifuged at 1000 rpm for 3 min. The supernate was removed and 5 ml culture mediums were added for resuspension. Cells were inoculated in a 48-well plate by 500 ul/well at the concentration of 3×10^4/ml and then incubated under 5% CO2, 37° C. for 24 hours. The supernate was removed and a culture medium containing polypeptide (Zn^2+ in the culture medium was present at the concentration of 17.39 μmol/L) was added for further incubation for 48 hours. Supernate in each well was carefully removed. The well was gently washed by PBS once in an amount of 450 μl/well. 450 μl MTT culture mediums were added into each well for further cultivation for 4 hours. The supernate was carefully discarded. DMSO was added in an amount of 450 μl/well and then the plate was placed in a shaking bed for oscillation for 10 min in dark. 150 μl supernates were transferred to a 96-well ELISA plate and absorbance value of each well was detected at 490 nm and 570 nm by the microplate reader.
(§2) P2 (SEQ ID NO:2) and P2T2S18 (SEQ ID NO:6) were tested for their in vitro inhibition on SMMC7221, SPC-A-1, A549, LS174T, BEL7402, CK-MES-1 and BxPC-3 at a polypeptide concentration of 1 mg/ml according to the method described in Example 3. Results are shown in FIG. 9 and the following Table. […] All IC50 concentrations for P2T2S18 are less than 1/10 IC50 concentration of P2.

BEL7402 (Liver cancer) = test: MTT in vitro inhibition of BEL7402; type: cell-based
Experimental: as §1, §2

tumor cell HepG2 = type: cell-based
Summary of the method: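 Cells seeded at 3×10^4/ml and grown 24 h, then exposed 48 h at 37 °C, 5% CO2 to polypeptide in medium containing Zn2+ at 17.39 μmol/L. Growth inhibition measured by MTT reduction (4 h), formazan dissolved in DMSO and absorbance read at 490 and 570 nm.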

SPC-A-1 (lung carcinoma) = type: cell-based
Experimental: as §1, §2

LS174T (Colon cancer) = type: cell-based
Experimental: as §1, §2

[1] = tested on: BxPC-3 (pancreatic cancer); test: MTT in vitro inhibition of BxPC-3; type: cell-based
Experimental: as §1, §2

[2] = tested on: Human Umbilical Vein Endothelial Cell (HUVEC); type: cell-based
[3] = tested on: lung cancer cell line SPC-A-1; test: In vitro death of SPC-A-1 tumor cell observed under optical microscope; type: cell-based; settings: SPC-A-1, 2.5 mg/ml
Experimental: Polypeptides were tested for their effect in inducing cell death of lung cancer cell line SPC-A-1 at a polypeptide concentration of 2.5 mg/ml according to the method described in Example 3. Cells were observed under an optical microscope over 24 hours and photos were taken. P2 exerts its function 4 hours after being added into the culture medium. […] On the contrary, they extremely swelled. 4 hours later cells further swelled and began to disintegrate at 8 hours. […] The manner of P2T2S18 caused cell death is very surprising. Currently, it is unable to determine what manner this kind of cell death belongs to. No report is found in papers as well. However, this mode of cell death is obviously different from that caused by P2. Together with the results in Example 7, it can conclude that P2T2S18 not only has a biological activity obviously higher than P2, but also has a manner causing cell death obviously different from that of P2.

A549 (lung carcinoma) = test: MTT in vitro inhibition of A549; type: cell-based
Experimental: as §1, §2

[4] = tested on: CK-MES-1 (lung squamous cell carcinoma); test: MTT in vitro inhibition of CK-MES-1; type: cell-based
Experimental: as §1, §2

[5] = tested on: Human liver cancer BEL7404 tumor model; type: in vivo; settings: BEL7404, day 21; polypeptides 15 mg/kg sc 2 times per day 21 days; endostatin/endostar 50 mg/kg sc; CTX 30 mg/kg ip 7 days
Experimental: (§3) In vitro cultured tumor cells in exponential phase and in good state were formulated to a 100 μl cell suspension containing 5×10^6 tumor cells. The suspension was subcutaneously inoculated to nude mice. Well-grown solid tumors were obtained 15 days later and cut into uniform pieces of about 3 mm under sterile condition. Each nude mouse was inoculated by one piece through a trocar. Mice were re-grouped according the tumor size 10-14 days after inoculation and animals having too large and too small tumor were excluded from the test. The average tumor volume for each group was basically identical. Test drugs were administered to each group according to the experimental protocol. The major axis (a) and minor axis (b) of the tumor were measured twice a week. Animals were sacrificed at the end of the test. The tumor was taken out, weighed and photos were taken. Tumor volume (TV)=½×a×b^2; Relative tumor volume (RTV)=Vt/Vo, wherein Vo is the tumor volume measured before grouping (one day before administration of the test drug), and Vt is the tumor volume measured at each time. Tumor inhibition rate (%)=(1−T/C)×100%, wherein T is the average tumor volume of the treatment group and C is the average tumor volume of the negative control group.
The amino acid sequence of recombination endostatin (“endostatin”) was set forth in SEQ ID NO: 1, and the amino acid sequence of the marketed drug Endostar (“endostar”) was set forth in SEQ ID NO: 10. Human liver cancer BEL7404 tumor model was constructed according to the method described in Example 10. The test contained 6 groups, with 6 animals in each group, except for the negative control group which contained 9 animals. The molar dose of the polypeptides was basically equal to the molar dose of endostatin. The results are shown in FIGS. 11a and 11b and the following Table.

[6] = tested on: Human lung cancer A549 tumor model; test: Inhibition on in vivo growth of tumor in combination with DDP, A549 model; settings: for Tumor inhibitor rate (%): A549, day 21
Experimental: as §3, with “The average tumor volume for each group was basically identical.” left out
The amino acid sequence of recombination endostatin (“endostatin”) was set forth in SEQ ID NO: 1, and the amino acid sequence of the marketed drug Endostar (“endostar”) was set forth in SEQ ID NO: 10. Human lung cancer A549 tumor model was constructed according to the method described in Example 10. The test contained 7 groups, with 6 animals in each group. The molar dose of the polypeptides was basically equal to the molar dose of endostatin.

For CC[C@H](C)[C@H](NC(=O)CNC(=O)[C@H](CCCNC(=N)N)NC(=O)[C@H](CCSC)NC(=O)CNC(=O)CNC(=O)[C@H](CO)NC(=O)[C@H](CC(C)C)NC(=O)[C@@H]1CCCN1C(=O)[C@H](CO)NC(=O)[C@H](CC(N)=O)NC(=O)[C@H](CC(C)C)NC(=O)[C@H](C)NC(=O)[C@@H](NC(=O)[C@H](CC(C)C)NC(=O)[C@H](Cc1c[nH]cn1)NC(=O)[C@H](CC(C)C)NC(=O)[C@@H](NC(=O)[C@@H]1CCCN1C(=O)[C@H](CCC(N)=O)NC(=O)[C@H](Cc1ccccc1)NC(=O)[C@H](CC(=O)O)NC(=O)[C@H](CCCNC(=N)N)NC(=O)[C@H](Cc1c[nH]cn1)NC(=O)[C@H](CO)NC(=O)[C@H](Cc1c[nH]cn1)NC(C)=O)C(C)C)C(C)C)C(=O)N[C@@H](CCCNC(=N)N)C(=O)NCC(=O)N[C@@H](C)C(=O)N[C@@H](CC(=O)O)C(N)=O [Polypeptide P2] (Ac-HSHRDFQPVLHLVALNSPLSGGMRGIRGAD-NH2), the “IC50” value (SMMC7721 (Liver cancer); SMMC7721) was 1030.2 µg/mL (≈ 314 µM), the “Cell Survival (%) at a polypeptide concentration of 1 mg/ml” value (from here on “Cell Survival (%) … of 1 mg/ml”) (SMMC7721 (Liver cancer); SMMC7721, 1 mg/ml) was 42% and the “IC50” value (BEL7402 (Liver cancer); BEL7402) was 732.9 µg/mL (≈ 223 µM). For the same molecule, the “Cell Survival (%) … of 1 mg/ml” value (BEL7402 (Liver cancer); BEL7402, 1 mg/ml) was 20%, the “IC50 (ug/ml) HepG2” value (tumor cell HepG2) was 1033.4 µg/mL (≈ 315 µM) and the “Cell Survival (%), 1 mg/ml of polypeptide, HepG2” value (tumor cell HepG2; 1) was 41%. For the same molecule, the “IC50” value (SPC-A-1 (lung carcinoma); SPC-A-1) was 1111.8 µg/mL (≈ 339 µM), the “Cell Survival (%) … of 1 mg/ml” value (SPC-A-1 (lung carcinoma); SPC-A-1, 1 mg/ml) was 48% and the “IC50” value (LS174T (Colon cancer)) was 1683.8 µg/mL (≈ 513 µM). For the same molecule, the “Cell Survival (%) … of 1 mg/ml” value (LS174T (Colon cancer); 1 mg/ml) was 95%, the “IC50” value ([1]; BxPC-3) was 860.9 µg/mL (≈ 262 µM) and the “Cell Survival (%) … of 1 mg/ml” value ([1]; BxPC-3, 1 mg/ml) was 40%. For the same molecule, the “IC50 (ug/ml) HUVEC” value [2] was 733.4 µg/mL (≈ 224 µM), the “Cell Survival (%), 1 mg/ml of polypeptide, HUVEC” value ([2]; 1 mg/ml) was 25% and the “time after being added into the culture medium at which the polypeptide acts on the cells” value [3] was 4 h. For the same molecule, the “state of cells at 24 hours” value ([3]; 24 hours) was “basically died”, the “IC50” value (A549 (lung carcinoma); A549) was 1312.2 µg/mL (≈ 400 µM) and the “Cell Survival (%) … of 1 mg/ml” value (A549 (lung carcinoma); A549, 1 mg/ml) was 57%. The “IC50” value ([4]; CK-MES-1) was 863.1 µg/mL (≈ 263 µM), the “Cell Survival (%) … of 1 mg/ml” value ([4]; CK-MES-1, 1 mg/ml) was 42% and the “Tumor inhibitor rate (%)” value [5] was 33.7%.
N.N.[Cl][Pt][Cl] [DDP, Cisplatin] was tested, and the “Tumor inhibitor rate (%)” value ([6]; DDP 2 mg/kg/day ip 7 days alone or with polypeptide 15 mg/kg or endostatin/endostar 50 mg/kg sc 2 times per day 21 days) was 24.8%, the “Tumor inhibitor rate (%)” value ([6]; DDP 6 mg/kg/day ip 7 days (high dose)) was 81.9% and the “animals with residual tumor” value ([6]; of 6 animals, combination with DDP 2 mg/kg, DDP alone 6 mg/kg) was 6.
